Data taken from BigSolDB 2.1.

Nc1cccc2ccncc12
solubility (mole fraction)
Details | in DMF | in acetone | in acetonitrile | in ethanol | in ethylene glycol | in isopropanol | in methanol | in n-propanol | in propylene glycol | in water
278.15 K | 0.00564 | 0.00309 | 0.00458 | 0.00135 | 0.000113 | 0.00283 | 0.000354 | 0.00359 | 0.000176 | 3.46e-05
283.15 K | 0.00693 | 0.00371 | 0.00539 | 0.00161 | 0.000132 | 0.00344 | 0.000411 | 0.0042 | 0.000211 | 4e-05
288.15 K | 0.00832 | 0.00439 | 0.00651 | 0.00191 | 0.000156 | 0.00401 | 0.000483 | 0.00497 | 0.000254 | 4.6e-05
293.15 K | 0.01 | 0.00532 | 0.00789 | 0.0022 | 0.000183 | 0.00477 | 0.000559 | 0.00593 | 0.000304 | 5.45e-05
298.15 K | 0.0119 | 0.00636 | 0.00939 | 0.00261 | 0.00022 | 0.00566 | 0.000664 | 0.007 | 0.000366 | 6.21e-05
303.15 K | 0.0141 | 0.00752 | 0.0111 | 0.00308 | 0.000261 | 0.00664 | 0.000773 | 0.00831 | 0.000433 | 7.2e-05
308.15 K | 0.0167 | 0.00896 | 0.0131 | 0.00365 | 0.000313 | 0.00784 | 0.000919 | 0.00984 | 0.000516 | 8.42e-05
313.15 K | 0.0196 | 0.0105 | 0.0156 | 0.0043 | 0.000367 | 0.00934 | 0.00107 | 0.0115 | 0.000608 | 9.8e-05
318.15 K | 0.023 | 0.0122 | 0.0182 | 0.00508 | 0.000429 | 0.0109 | 0.00128 | 0.0135 | 0.000718 | 0.000113
323.15 K | 0.0267 | 0.0143 | 0.0219 | 0.00602 | 0.000505 | 0.0128 | 0.00151 | 0.0158 | 0.00085 | 0.000132
